Measurements taken from PMC6480153, “Discovery of Novel Triazole-Containing Pyrazole Ester Derivatives as Potential Antibacterial Agents” (Molecules, 2019).
In brackets after ≈: the same amount, converted by molar mass. Like-named read-outs stand apart in the source and are kept apart here.

What was measured:
[1] = system: Listeria monocytogenes (ATCC-15313); assay: MIC by agar-dilution method against Listeria monocytogenes; format: cell-based; settings: for MIC: read-out: MIC L.m
Procedure: (§1) In vitro antimicrobial activity of the prepared compounds against four bacteria was evaluated by the conventional agar-dilution method. Ciprofloxacin was selected as a reference standard.
(§2) The solid media Luria-Bertani (LB)-Broth-Agar-Medium (tryptone 10 g/L, yeast 5 g/L, NaCl 10 g/L, agar 15 g/L, and distilled water 1000 mL, adjusted to pH 7.4 was used for testing the antibacterial activity.
(§3) The in vitro antibacterial activity for synthesized compounds 4a–m were evaluated using the agar-dilution method. […] Drugs (10.0 mg) were dissolved in DMSO (1 mL) and the solution was diluted with water (9 mL). […] The bacterial inocula were prepared by suspending 24 h-old bacterial colonies from LB-Broth-Agar-Medium in 0.85% saline. The inocula were adjusted to 0.5 McFarland Standard ([…]). The suspensions were then diluted in 0.85% saline to give 10^7 CFU/mL. Petri dishes were spot-inoculated with 1 μL of each of the prepared bacterial suspensions (10^4 CFU/spot) and incubated at 37 °C for 24 h. […] A control test was also performed with test medium supplemented with DMSO at the same dilutions as used in the experiment in order to ensure that the solvent had no influence on bacterial growth.

[2] = system: Salmonella gallinarum (ATCC-9184); assay: MIC by agar-dilution method against Salmonella gallinarum; format: cell-based; settings: 24 h; for MIC: Salmonella enterica, read-out: MIC S.e
Procedure: as §1, §2, §3

[3] = system: Escherichia coli (ATCC-25922); assay: MIC by agar-dilution method against Escherichia coli; format: cell-based; settings: 24 h; for MIC E. c: 37 °C
Procedure: as §1, §2, §3

[4] = system: Staphylococcus aureus (ATCC-12600); assay: MIC by agar-dilution method against Staphylococcus aureus; format: cell-based; settings: for MIC: ATCC12600
Procedure: as §1, §2, §3

DNA gyrase = target: T1, DNA gyrase (Escherichia coli, UniProt P0AES4+P0AES6); assay: DNA gyrase (topoisomerase II) supercoiling inhibition, gel electrophoresis; format: biochemical; settings: Topoisomerase II supercoiling activity; enzyme isolated from Escherichia coli
T1 construct: First, the E. coli suspension is extracted to obtain a crude enzyme solution; endogenous in cells
Procedure: (§4) In order to determine the relationship between compounds and antibacterial activity, the inhibitory activity of selected compounds (4d and 4k) against DNA gyrase and topoisomerase IV isolated from Escherichia coli was examined.
(§5) The in vitro antibacterial activity of the target compounds was carried out on by the methods of Sato et al. and Peng and Marians. First, the E. coli suspension is extracted to obtain a crude enzyme solution. After the purification step, the selected compounds are determined by gel electrophoresis to obtain data of different gradient concentrations, thereby calculating the IC50 values.

topoisomerase IV = target: T2, topoisomerase IV (Escherichia coli, UniProt P0AFI2+P20083); assay: Topoisomerase IV decatenation inhibition, gel electrophoresis; format: biochemical; settings: Topoisomerase IV decatenation activity, enzyme isolated from Escherichia coli
T2 construct: First, the E. coli suspension is extracted to obtain a crude enzyme solution; endogenous in cells
Procedure: as §4, §5

[5] = Listeria monocytogenes ATCC-15313, agar dilution, 37 °C, 24 h
[6] = Salmonella gallinarum ATCC-9184, agar dilution, 37 °C
[7] = Staphylococcus aureus ATCC-12600, agar dilution, 37 °C, 24 h

T1 sequence (P0AES4 whole entry, one chain of several): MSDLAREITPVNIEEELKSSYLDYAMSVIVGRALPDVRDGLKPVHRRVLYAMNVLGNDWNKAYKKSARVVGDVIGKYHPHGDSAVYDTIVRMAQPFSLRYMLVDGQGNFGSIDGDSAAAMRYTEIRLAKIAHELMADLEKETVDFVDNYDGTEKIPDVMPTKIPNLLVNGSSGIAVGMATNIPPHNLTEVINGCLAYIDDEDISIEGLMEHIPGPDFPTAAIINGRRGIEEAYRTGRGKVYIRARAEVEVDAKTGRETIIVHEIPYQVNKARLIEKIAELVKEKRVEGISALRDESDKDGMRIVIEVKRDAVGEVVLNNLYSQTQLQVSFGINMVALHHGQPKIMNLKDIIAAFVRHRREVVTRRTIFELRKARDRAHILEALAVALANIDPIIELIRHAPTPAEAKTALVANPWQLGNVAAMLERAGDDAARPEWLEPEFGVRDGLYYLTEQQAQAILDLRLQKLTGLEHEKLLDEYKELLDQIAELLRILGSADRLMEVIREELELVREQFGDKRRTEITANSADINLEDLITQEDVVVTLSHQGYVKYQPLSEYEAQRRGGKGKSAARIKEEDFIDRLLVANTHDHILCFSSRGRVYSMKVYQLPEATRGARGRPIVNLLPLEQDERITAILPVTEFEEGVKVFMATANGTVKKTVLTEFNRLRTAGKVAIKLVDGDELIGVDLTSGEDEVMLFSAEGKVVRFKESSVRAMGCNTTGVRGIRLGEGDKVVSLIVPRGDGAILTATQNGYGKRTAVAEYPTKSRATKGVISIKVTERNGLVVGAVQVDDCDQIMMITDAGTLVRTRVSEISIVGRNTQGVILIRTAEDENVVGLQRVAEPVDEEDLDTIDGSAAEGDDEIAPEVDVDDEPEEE
T2 sequence (P20083 whole entry): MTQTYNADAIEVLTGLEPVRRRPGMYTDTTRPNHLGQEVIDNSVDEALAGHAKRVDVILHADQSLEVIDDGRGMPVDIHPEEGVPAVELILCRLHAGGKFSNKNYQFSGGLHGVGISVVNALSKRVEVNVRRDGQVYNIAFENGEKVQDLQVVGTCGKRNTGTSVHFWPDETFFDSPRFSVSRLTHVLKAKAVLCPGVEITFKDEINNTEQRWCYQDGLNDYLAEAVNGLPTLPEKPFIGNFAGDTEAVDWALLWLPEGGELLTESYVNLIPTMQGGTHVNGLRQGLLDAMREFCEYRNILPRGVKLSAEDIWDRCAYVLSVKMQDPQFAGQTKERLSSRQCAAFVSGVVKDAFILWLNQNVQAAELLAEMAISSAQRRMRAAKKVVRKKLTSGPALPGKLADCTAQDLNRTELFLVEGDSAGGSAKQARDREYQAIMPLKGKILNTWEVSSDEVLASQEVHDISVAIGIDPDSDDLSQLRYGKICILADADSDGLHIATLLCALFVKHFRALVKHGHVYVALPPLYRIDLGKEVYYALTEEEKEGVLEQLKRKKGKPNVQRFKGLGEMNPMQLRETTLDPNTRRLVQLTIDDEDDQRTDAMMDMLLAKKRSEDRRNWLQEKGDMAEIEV
T2 sequence (P0AFI2 whole entry): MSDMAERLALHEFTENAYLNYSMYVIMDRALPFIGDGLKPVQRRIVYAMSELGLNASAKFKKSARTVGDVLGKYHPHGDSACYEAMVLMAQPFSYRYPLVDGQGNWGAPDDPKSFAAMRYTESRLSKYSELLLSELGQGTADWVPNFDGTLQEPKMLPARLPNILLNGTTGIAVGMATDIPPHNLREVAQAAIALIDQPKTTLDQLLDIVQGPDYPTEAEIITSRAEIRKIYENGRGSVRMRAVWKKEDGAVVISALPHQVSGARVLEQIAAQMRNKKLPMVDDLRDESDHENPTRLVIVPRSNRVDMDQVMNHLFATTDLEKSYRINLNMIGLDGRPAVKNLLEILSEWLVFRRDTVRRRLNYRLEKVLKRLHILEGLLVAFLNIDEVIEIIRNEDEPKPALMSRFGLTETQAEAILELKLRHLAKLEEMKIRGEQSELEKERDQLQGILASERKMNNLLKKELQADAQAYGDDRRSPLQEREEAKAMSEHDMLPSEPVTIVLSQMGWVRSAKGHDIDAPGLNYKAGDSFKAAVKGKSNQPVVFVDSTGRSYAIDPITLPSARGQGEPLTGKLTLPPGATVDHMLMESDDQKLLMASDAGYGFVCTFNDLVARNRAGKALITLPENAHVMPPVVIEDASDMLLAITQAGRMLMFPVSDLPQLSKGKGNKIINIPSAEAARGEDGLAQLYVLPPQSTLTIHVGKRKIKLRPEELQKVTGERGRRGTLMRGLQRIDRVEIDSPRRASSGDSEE

Row | SMILES | MIC E. c [3] | MIC L.m [1, 5] | MIC S.e [2, 6] | MIC S.a [4, 7] | further results
1 | O=C(O)c1cn(C2CC2)c2cc(N3CCNCC3)c(F)cc2c1=O [CIP, Ciprofloxacin, reference compound] |  |  |  |  | MIC ([1]; Listeria monocytogenes, ATCC15313, 24 h): 1 µg/mL (≈ 3.02 µM); MIC [2]: 0.25 µg/mL (≈ 0.754 µM)
2 | Cc1nn(-c2ccccc2)c(Cl)c1C(=O)Oc1ncn(-c2ccccc2)n1 [Compound 4a, 1-phenyl-1H-1,2,4-triazol-3-yl5-chloro-3-methyl-1-phenyl-1H-pyrazole-4-carboxylate] | 8 µg/mL (≈ 21.1 µM) | 16 µg/mL (≈ 42.1 µM) | 16 µg/mL (≈ 42.1 µM) | 16 µg/mL (≈ 42.1 µM) | 
3 | Cc1nn(-c2ccc(F)cc2)c(Cl)c1C(=O)Oc1ncn(-c2ccccc2)n1 [Compound 4b, 1-phenyl-1H-1,2,4-triazol-3-yl5-chloro-1-(4-fluorophenyl)-3-methyl-1H-pyrazole-4-carboxylate] | 64 µg/mL (≈ 161 µM) | >128 µg/mL | 64 µg/mL (≈ 161 µM) | >128 µg/mL | 
4 | Cc1nn(-c2ccc(Cl)cc2)c(Cl)c1C(=O)Oc1ncn(-c2ccccc2)n1 [Compound 4c, 1-phenyl-1H-1,2,4-triazol-3-yl5-chloro-1-(4-chlorophenyl)-3-methyl-1H-pyrazole-4-carboxylate] | 64 µg/mL (≈ 154 µM) | >128 µg/mL | 64 µg/mL (≈ 154 µM) | 64 µg/mL (≈ 154 µM) | 
5 | Cc1ccc(-n2nc(C)c(C(=O)Oc3ncn(-c4ccccc4)n3)c2Cl)cc1 [Compound 4d, 1-phenyl-1H-1,2,4-triazol-3-yl5-chloro-3-methyl-1-(p-tolyl)-1H-pyrazole-4-carboxylate] |  |  |  |  | MIC ([3]; ATCC25922, 37 °C): 4 µg/mL (≈ 10.2 µM); MIC ([1]; ATCC15313, Listeria monocytogenes ATCC-15313, agar dilution, 37 °C, 24 h): 2 µg/mL (≈ 5.08 µM); melting point: 154 to 156 °C; MIC [2, 6]: 0.5 µg/mL (≈ 1.27 µM); MIC ([4]; Staphylococcus aureus ATCC-12600, agar dilution, 37 °C, 24 h, read-out: MIC S.a): 4 µg/mL (≈ 10.2 µM); MIC ([4]; Staphylococcus aureus, range stated in text for three compounds, read-out: MIC against Staphylococcus aureus): 4 to 8 µg/mL (≈ 10.2 to 20.3 µM); IC50 (DNA gyrase): 34.3 µM; IC50 (topoisomerase IV; read-out: IC50 Topo IV (converted)): 61.4 µM
6 | Cc1nn(-c2ccccc2)c(Cl)c1C(=O)Oc1ncn(-c2ccc(F)cc2)n1 [Compound 4e, 1-(4-fluorophenyl)-1H-1,2,4-triazol-3-yl5-chloro-3-methyl-1-phenyl-1H-pyrazole-4-carboxylate] | 32 µg/mL (≈ 80.4 µM) | 32 µg/mL (≈ 80.4 µM) | 32 µg/mL (≈ 80.4 µM) | 64 µg/mL (≈ 161 µM) | 
7 | Cc1nn(-c2ccc(F)cc2)c(Cl)c1C(=O)Oc1ncn(-c2ccc(F)cc2)n1 [Compound 4f, 1-(4-fluorophenyl)-1H-1,2,4-triazol-3-yl5-chloro-1-(4-fluorophenyl)-3-methyl-1H-pyrazole-4-carboxylate] | >128 µg/mL | >128 µg/mL | >128 µg/mL | >128 µg/mL | 
8 | Cc1nn(-c2ccc(Cl)cc2)c(Cl)c1C(=O)Oc1ncn(-c2ccc(F)cc2)n1 [Compound 4g, 1-(4-fluorophenyl)-1H-1,2,4-triazol-3-yl5-chloro-1-(4-chlorophenyl)-3-methyl-1H-pyrazole-4-carboxylate] | 64 µg/mL (≈ 148 µM) | 64 µg/mL (≈ 148 µM) | 64 µg/mL (≈ 148 µM) | 64 µg/mL (≈ 148 µM) | 
9 | Cc1ccc(-n2nc(C)c(C(=O)Oc3ncn(-c4ccc(F)cc4)n3)c2Cl)cc1 [Compound 4h, 1-(4-fluorophenyl)-1H-1,2,4-triazol-3-yl5-chloro-3-methyl-1-(p-tolyl)-1H-pyrazole-4-carboxylate] | 32 µg/mL (≈ 77.7 µM) | 16 µg/mL (≈ 38.9 µM) | 32 µg/mL (≈ 77.7 µM) | 8 µg/mL (≈ 19.4 µM) | 
10 | Cc1nn(-c2ccc(F)cc2)c(Cl)c1C(=O)Oc1ncn(-c2ccc(Cl)cc2)n1 [Compound 4i, 1-(4-chlorophenyl)-1H-1,2,4-triazol-3-yl5-chloro-1-(4-fluorophenyl)-3-methyl-1H-pyrazole-4-carboxylate] | >128 µg/mL | 64 µg/mL (≈ 148 µM) | 64 µg/mL (≈ 148 µM) | >128 µg/mL | 
11 | Cc1nn(-c2ccc(Cl)cc2)c(Cl)c1C(=O)Oc1ncn(-c2ccc(Cl)cc2)n1 [Compound 4j, 1-(4-chlorophenyl)-1H-1,2,4-triazol-3-yl5-chloro-1-(4-chlorophenyl)-3-methyl-1H-pyrazole-4-carboxylate] | 64 µg/mL (≈ 143 µM) | 64 µg/mL (≈ 143 µM) | 32 µg/mL (≈ 71.3 µM) | 64 µg/mL (≈ 143 µM) | 
12 | Cc1ccc(-n2cnc(OC(=O)c3c(C)nn(-c4ccccc4)c3Cl)n2)cc1 [Compound 4k, 1-(p-tolyl)-1H-1,2,4-triazol-3-yl-5-chloro-3-methyl-1-phenyl-1H-pyrazole-4-carboxylate] | 4 µg/mL (≈ 10.2 µM) | 8 µg/mL (≈ 20.3 µM) | 4 µg/mL (≈ 10.2 µM) | 4 µg/mL (≈ 10.2 µM) | IC50 Gyrase (DNA gyrase): 25.7 µg/mL (≈ 65.3 µM); IC50 Topo IV (topoisomerase IV): 33.1 µg/mL (≈ 84 µM)
13 | Cc1ccc(-n2cnc(OC(=O)c3c(C)nn(-c4ccc(F)cc4)c3Cl)n2)cc1 [Compound 4l, 1-(p-tolyl)-1H-1,2,4-triazol-3-yl5-chloro-1-(4-fluorophenyl)-3-methyl-1H-pyrazole-4-carboxylate] | 32 µg/mL (≈ 77.7 µM) | 64 µg/mL (≈ 155 µM) | 32 µg/mL (≈ 77.7 µM) | 32 µg/mL (≈ 77.7 µM) | 
